Data on one molecule can be found in patent US20100197789A1, “ANTI-OBESITY AGENT AND USE THEREOF” (National University Corporation Nagoya University, priority 2006, published 2010).

Holding throughout (type): in vivo, mouse
In experiment [1] the test system is db/db mice. Put plainly: Rectal temperature, oxygen consumption and motor activity, db/db mice. The method, then:
5 week-old male C57BL/KsJ-db/db mice (db/db mice: body weight 19 to 25 g, Japan SLC, Inc.) were purchased and individually fed in tip cages. For the db/db mice, normal pellet diet (CE-2) was administered under free water intake and free food intake. A body weight and a food intake amount over 24 hours were measured everyday from the start of feeding. On day 3 after the start of feeding, blood was taken from an orbit after 6 hour-fasting and a blood glucose level and a blood insulin concentration were measured. The db/db mice were divided into three groups (10 mice per each group) so that a body weight, a 24 hour-food intake amount, a blood glucose level, and a blood insulin concentration were equal, and defined to be a control group, an R-baclofen treated group, and an S-baclofen treated group. […] After division into the groups, from day 5 after the start of feeding, R-baclofen and S-baclofen were dissolved in drinking water and 5 week-continuous oral administration was started. Both of R-baclofen and S-baclofen were dissolved in drinking water at a concentration of 1.1 mg/dl used in the low concentration treated group in the experiment of baclofen racemic mixture administration. A food intake amount and a body weight were measured over time, and a rectal temperature was measured 5 weeks after the start of the administration. Blood was taken after the 5-week administration of baclofen, and the db/db mice were sacrificed by cervical luxation.
R-baclofen and S-baclofen were administered to db/db/mice and (±)-baclofen was administered to db/^+m mice respectively for 5 weeks, and rectal temperatures were then continuously measured for 3 days at 20 o'clock immediately before the dark period when feed intake was started in the mice. The method of measuring rectal temperatures was as follows. That is, the rectal temperatures were measured by using a digital thermistor (manufactured by NATSUME SEISAKUSHO CO., LTD.).
(±)-baclofen was orally administered to db/db mice and DIO mice for 5 weeks and rectal temperatures were measured 5 weeks after the start of the administration, and oxygen consumptions and motor activity were measured by using a small animal metabolism measuring system (model MK-5000: Muromachi Kikai Co., Ltd.).

A further experiment concerns DIO mice. Put plainly: Fasting blood glucose, HbA1c, blood insulin, plasma leptin and adiponectin after 5-week administration, DIO mice. The protocol: (§1) The blood glucose level was measured by a glucose analyzer Antisense (HORIBA, Ltd.) promptly after taking blood from an orbit. HbA1c was measured by a glycohemoglobin analyzer HLC-723 GHbV (manufactured by TOSOH Corporation) after preserving blood at −80° C.
(§2) After taking blood from an orbit by using a hematocrit tube coated with heparin, blood was centrifuged at 3500 rpm at 4° C. for 15 minutes, and plasma was preserved at −80° C. The plasma concentrations of insulin, leptin and adiponectin were measured by the ELISA method (levis insulin kit (mouse): Shibayagi Co., Ltd., Morinaga Leptin assay kit: Morinaga Institute of Biological Science, Inc., Mouse/rat adiponectin ELISA kit: OTSUKA Pharmaceutical Co., Ltd.).
(±)-baclofen (5 mg/kg/day), SKF97541 (0.3 mg/kg/day) or 3-APPA (5 mg/kg/day) was orally administered to DIO mice for 5 weeks according to the above described method, and then blood was taken from an orbit after 6 hour-fasting and a blood glucose level, an HbA1c value and a blood insulin concentration were measured.
(±)-baclofen (5 mg/kg/day) was orally administered to DIO mice for 5 weeks according to the above described method, and then, blood was taken from an orbit after 6 hour-fasting, and a plasma leptin concentration and a plasma adiponectin concentration were measured. The DIO mice were sacrificed by cervical luxation after the end of the 5-week administration, and then epididymal white adipose tissues and subcutaneous white adipose tissues were surgically removed, and after measuring the weights, they were fixed in 4% formaldehyde. The epididymal white adipose tissues were cut out to prepare a section with a thickness of 8 μm and subjected to Hematoxylin-Eosin stain (H-E stain) and a form (size) of a fat cell was examined by using an image analysis system, Neurolucida (MicroBrightField Japan, Inc.).

Experiment [2] deals with db/db mice. Put plainly: Blood glucose level, HbA1c and plasma hormone concentrations after 5-week administration, db/db mice. To be noted: 1.1 and 2.7 mg/dl in drinking water. The protocol:
(§3) 5 week-old male C57BL/KsJ-db/db mice (db/db mice: body weight 19 to 25 g, Japan SLC, Inc.) were purchased and individually fed in tip cages. For the db/db mice, normal pellet diet (CE-2) was administered under free water intake and free food intake. A body weight and a food intake amount over 24 hours were measured every day from the start of feeding. On day 3 after the start of feeding, blood was taken from an orbit after 6 hour-fasting and a blood glucose level and a blood insulin concentration were measured. The db/db mice were divided into three groups (10 mice per each group) so that a body weight, a 24 hour-food intake amount, a blood glucose level, and a blood insulin concentration were equal, and defined to be a control group, a low concentration baclofen treated group, and a high concentration baclofen treated group. After division into the groups, from day 5 after the start of feeding, (±)-baclofen was dissolved in drinking water and 5 week-continuous oral administration to the baclofen treated groups was started. (±)-baclofen was dissolved in drinking water at a concentration of 1.1 mg/dl in the low concentration treated group and at a concentration of 2.7 mg/dl in the high concentration treated group. A food intake amount and a body weight were measured over time during the period of 5 week-administration of (±)-baclofen, blood was taken after the end of the 5-week administration, and the db/db mice were sacrificed by cervical luxation. Brains, epididymal white adipose tissues, subcutaneous white adipose tissues and brown adipose tissues were surgically removed. The brains and brown adipose tissues were frozen in dry ice and liquid nitrogen immediately after the removal and then preserved at −80° C. The epididymal white adipose tissues and subcutaneous white adipose tissues were measured in weights, and then fixed in 4% formaldehyde and preserved at 4° C.
as §1, §2

The next experiment has as its system POMC mRNA. In words: In situ hybridization, POMC mRNA in hypothalamic arcuate nucleus, db/db mice. To be noted: after 5 weeks, 1.1 and 2.7 mg/dl in drinking water, NIH image quantitation. The method, then: as §3, with “After division into the groups, from day 5 after the start of feeding, (±)-baclofen was dissolved in drinking water and 5 week-continuous oral administration to the baclofen treated groups was started. (±)-baclofen was dissolved in drinking water at a concentration of 1.1 mg/dl in the low concentration treated group and at a concentration of 2.7 mg/dl in the high concentration treated group.” left out, “Brains, epididymal white adipose tissues, subcutaneous white adipose tissues and brown adipose tissues were surgically removed. The brains and brown adipose tissues were frozen in dry ice and liquid nitrogen immediately after the removal and then preserved at −80° C.” left out, “C. […]” for “C.”

The next experiment deals with NPY mRNA. In words: In situ hybridization, NPY mRNA in hypothalamic arcuate nucleus, DIO mice. To be noted: (±)-baclofen oral 5 weeks. The method, then: A hypothalamic section with a thickness of 12 μm was prepared from the brain preserved at −80° C. by using a cryostat and stuck to a MAS coat slide and then in situ hybridization was performed. For a label of NPY mRNA and POMC mRNA probes, ^35S was used. The hypothalamic section was pretreated by using triethanolamine, ethanol and the like, and then 12 hour-hybridization was performed at 55° C. After the hybridization, the hypothalamic section was treated by washing with SSC, RNase, etc. After development to a film, the mRNA expression strength was assayed by using the NIH image.
(±)-baclofen was orally administered to DIO mice for 5 weeks according to the above method, and then the DIO mice were sacrificed. A brain was surgically removed, and changes in expression amounts of NPY mRNA and POMC mRNA in the hypothalamic arcuate nucleus were examined by using an in situ hybridization method.

The mark [3] stands for this setting: 6 hour-fasting after 5 weeks oral, (±)-baclofen 5, SKF97541 0.3, 3-APPA 5 mg/kg/day, vs control.
Where [4] appears, read: (±)-baclofen 5 mg/kg/day oral 5 weeks, 6 hour-fasting.

On to `NCC(CC(=O)O)c1ccc(Cl)cc1` (racemic) [(±)-baclofen, (RS)-4-amino-3-(4-chlorophenyl)butanoic acid], for which the oxygen consumption result in the experiment with db/db mice [1] ((±)-baclofen oral 5 weeks) was “significantly increased”. The “body temperature (rectal)” value with db/db mice [1] ((±)-baclofen oral, 5 weeks after start of administration) is “significantly raised”. For the same molecule, in the experiment on DIO mice (setting [3]), the “fasting blood glucose level” value is “significant decreases” and the “fasting blood insulin concentration” value is “significant decreases”. In the experiment with DIO mice (setting [4]), the plasma adiponectin concentration entry is reported as “significantly increased” and the plasma leptin concentration result is recorded as “significantly decreased”. In addition, the HbA1c value entry in the experiment with DIO mice (after 5 weeks oral, (±)-baclofen 5, SKF97541 0.3, 3-APPA 5 mg/kg/day, vs control) is “significant decreases”. In the experiment on db/db mice [2] (after 5 week-administration), the blood adiponectin concentration result was “Significant increases”, the blood leptin concentration result is reported as “Significant increases” and the “fasting blood insulin level” value is given as “No change”. In addition, in the experiment with db/db mice [2] (after administration for 5 weeks), the HbA1c value result is “Significant decreases”. Moreover, the “fasting blood glucose level” value in the experiment with db/db mice [2] (fasting for 6 hours, after 5 week-administration) was “significant suppression”. For the same molecule, the “expression of POMC mRNA in the hypothalamic arcuate nucleus” value in the experiment with POMC mRNA is “significantly enhanced”. For the same molecule, in the experiment with NPY mRNA, the “expression of NPY mRNA in the hypothalamic arcuate nucleus” value is reported as “significantly suppressed”.
